Earlier results in patent publication US6974588B1, “Transdermal patch for delivering volatile liquid drugs” (Elan Pharma International Limited, priority 1999, dated 2005).

System: nicotine dependence
Details: oral administration, literature report

**Q.** With CNC1(C)C2CCC(C2)C1(C)C (stereo not shown) [oral mecamylamine, mecamylamine] as the compound, how does the “ad hoc cigarette consumption” value read?
**A.** The value was “increased”.
